Assay results as given in US20190070170A1, “METHOD OF S[…]-1” (Macau University of Science and Technology, priority 2017, published 2019).

How the values were obtained:
NF-κB = test: EMSA for NF-κB DNA binding activity in LPS-stimulated rat peritoneal macrophages; format: cell-based; details: LPS-induced, nuclear extract
Procedure: Nuclear extract proteins (10 μg) for the assay of the DNA binding activity of NF-κB were tested with a biotin-labeled oligonucleotide bio-NF-κB probe according to manufacturer's instructions of EMSA kit (Viagene Biotech).

mPGES-1 = mPGES-1 protein expression in LPS-activated rat peritoneal macrophages (western blotting); format: cell-based; details: SIN or DEX 1 h, LPS 24 h
Procedure: Sprague-Dawley (SD) rats from the University of Hong Kong were housed in cages with free access to food and water. Peritoneal macrophages of SD rats were isolated as described in Liu J. et al., Pharmacological research 2016, 111:303-315. Briefly, untreated rats were sacrificed and after laparotomy, about 50 ml cold sterile Hank's balanced salt solution (HBSS) was used to lavage the peritoneal cavity at twice, and then the peritoneal lavage fluid was collected and centrifuged at 1500 rpm for 10 min. The cell pellets was suspended at a density 1.5×10^6 cells/ml in pre-hearted DMEM medium with 10% heat-inactivated FBS, penicillin G (100 units/ml), streptomycin ([…]), and L-glutamine (2 mM), followed by seeding in 6-well plates at a density of 4.5×10^6 cells and incubation for 2 h. Then the medium were discarded to remove the non-adherent cells. The adherent cells were further washed for two times with pre-heated DMEM medium to remove floating cells. Next, cells were pre-treated with various concentration of SIN for 1 h, followed by stimulation with LPS (1 μg/ml).
(§1) Whole-cell and nuclear proteins were obtained using RIPA lysis buffer (CST, Boston, Mass., USA) and Nuclear and Cytoplasmic Extraction Reagents kit from Thermo Scientific (Asheville, N.C., USA), respectively. […] The levels of protein expression were measured using Odyssey v3.0 software from Li-COR (Lincoln, Nebr., USA).

COX-1 [1] = test: COX-1 protein expression in IL-1β-stimulated A549 cells (western blotting); format: cell-based; details: IL-1β with SIN or DEX for 48 h
Procedure: (§2) RAW264.7 and A549 cell lines were obtained from American Type Culture Collection (ATCC, Manassas, Va., USA) and maintained in DMEM (RAW264.7) or 1640 (A549) medium containing 10% FBS (Gibco-BRL, Grand Island, N.Y., USA) and antibiotics at 37° C. in a humidified atmosphere containing 5% CO2. RAW264.7 cells were plated in 6-well plates at a density of 4×10^5 cells and incubated for 24 h, then the cells were pretreated with different concentrations of SIN for 1 h before stimulating with LPS (100 ng/ml). A549 cells were seeded in 6-well plates at a density of 1×10^5 cells and incubated for 24 h, followed by pretreatment with SIN. A549 cells were then stimulated by IL-1β (1 ng/ml).
(§3) Whole-cell and nuclear proteins were obtained using RIPA lysis buffer (CST, Boston, Mass., USA) and Nuclear and Cytoplasmic Extraction Reagents kit from Thermo Scientific (Asheville, N.C., USA), respectively. For immunoblotting, proteins from whole-cell, cytoplasm, nuclear, and microsomal fractions were separated on SDS-PAGE, then transferred onto a nitrocellulose membrane from GE Healthcare Life Sciences (Buckinghamshire, UK), and incubated with 5% skimmed milk at room temperature for 1 h. […] The levels of protein expression were measured using Odyssey v3.0 software from Li-COR (Lincoln, Nebr., USA).

[2] = tested on: collagen-induced arthritis; test: Collagen-II induced arthritis (CIA) in DBA/1 mice; format: in vivo; details: CIA DBA/1 mice; SIN 100 mg/kg i.p.
Procedure: Female DBA/1 mice (8-9 weeks old) were purchased from Shanghai SiLaike (SLAC) Laboratory Animal Company (Shanghai, China) and fed with a chow diet and water at room temperature. Equal volume of complete Freuend's adjuvant (CFA) and Bovine Type II Collagen (CII) were mixed and emulsified using a homogenizer (13,000 rpm) on ice. On day 0, DBA/1 mice were immunized by injecting 50 μl of CII in CFA in the tail, approximately 2 cm from the base of the tail. After injection, on day 18, mice with one or more than one paw inflamed were chosen and randomly divided into model group, SIN (100 mg/kg, i.p.) treatment group and MTX (10 mg/kg/week, p.o) treatment group, the mice without immunization were used as normal control. On day 21, these chosen mice were boosted through injecting the same volume of CII in IFA same as the day 0 immunization procedure. The incidence of joint swelling in each group was recorded every two days since drug treatment. Paw thickness (at the ankle joints of the hind paws) of each mouse was obtained by using vernier caliper to record the severity of paw swelling.
Arthritis score of each paw was evaluated every two days during experiment with the following criteria: • 0: no evidence of erythema and swelling; • 1: erythema and mild swelling confirmed to the tarsals or ankle joint; • 2: erythema and mild swelling extending from the ankle to the tarsal joints; • 3: erythema and moderate swelling extending from the ankle to metatarsal joints; and • 4: erythema and severe swelling encompass the ankle, foot and digits, or ankylosis of the limb.
The score of each paw was summed for a score of 0-16 for each mouse. Mice were then sacrificed and hind paws were removed and freshly frozen in liquid nitrogen and stored at −80° C. until used.

COX-1 [3] = test: COX-1 protein expression in hind paws of CIA DBA/1 mice; format: in vivo; details: SIN 100 mg/kg i.p.
Procedure: Female DBA/1 mice (8-9 weeks old) were purchased from Shanghai SiLaike (SLAC) Laboratory Animal Company (Shanghai, China) and fed with a chow diet and water at room temperature. Equal volume of complete Freuend's adjuvant (CFA) and Bovine Type II Collagen (CII) were mixed and emulsified using a homogenizer (13,000 rpm) on ice. On day 0, DBA/1 mice were immunized by injecting 50 μl of CII in CFA in the tail, approximately 2 cm from the base of the tail. […] The incidence of joint swelling in each group was recorded every two days since drug treatment. […]
Frozen paws were pulverized in liquid nitrogen using a stainless steel mortar and pestle, then re-suspended in 8 volumes of ice-cold PBS from Invitrogen (San Diego, Calif., USA) with 2.6 mM DTT from Promega (Madison, Wis., USA) and 2×Complete Protease Inhibitor mixture from Roche (Mannheim, Germany), and homogenized on ice bath using a tissue homogenizer from T25 digital, IKA (Stanfen, Germany) at 10,000 rpm/min for 5 min. […] The protein concentrations were measured using a Bio-Rad protein assay kit (Hercules, Calif., USA). […]
as §1

iNOS = iNOS protein level in LPS-stimulated RAW264.7 cells (immunoblotting); format: cell-based, mouse; details: pretreatment 1 h, LPS 100 ng/ml 18 h
Procedure: as §2, §3

COC1=C[C@@H]2[C@@H]3Cc4ccc(OC)c(O)c4[C@]2(CCN3C)CC1=O [SIN, sinomenine]
NF-κB DNA binding activity (EMSA) (NF-κB): capable of suppressing
mPGES-1 protein expression (mPGES-1): significantly and dose-dependently inhibited
COX-1 protein expression (COX-1 [1]): did not suppress
arthritic scores (total of four paws) [2]: decreased
average thickness of the inflamed hind paws [2]: decreased average thickness
onset of joint swelling (incidence of arthritis) [2]: delayed the onset of the joint swelling
COX-1 expression in paw tissues (COX-1 [3]): did not produce observable changes
iNOS expression (iNOS): significantly inhibited
